# Measurements published in patent US8147817B2, “IL-33 in the treatment and diagnosis of diseases and disorders” (The Brigham and Women's Hospital, Inc., priority 2006, dated 2012).
# Entries after “also recorded” stand apart in the source; their conditions may differ.
# Experiments:
# [1] = test system: NF-κB; experiment: NF-κB nuclear binding activity by EMSA in cardiac fibroblasts; assay type: cell-based, rat; conditions: angiotensin-II 1 μM, phenylephrine 50 μM, IL-33 10 ng/ml
# Description: (§1) Electromobility shift assays were performed as described previously (8). Cells were lysed for 10 minutes on ice in a solution containing 10 mM HEPES (pH 7.6), 15 mM KCl, 2 mM MgCl2, 0.1 mM ethylenediamine tetraacetic acid (EDTA), 1 mM dithiothreitol (DTT), 0.5 mM phenylmethylsulphonylfluoride (PMSF), 10 μg/mL leupeptin and 0.2% Nonident P-40. Dishes were gently scraped, and nuclei were collected by centrifugation at 800 g for 30 seconds and then suspended in a solution of 50 mM HEPES, 400 mM KCl, 0.1 mM EDTA, 10% glycerol, 1 mM DTT, 0.5 mM PMSF and 10 μg/mL leupeptin. The mixture was incubated on ice for 30 minutes, and the supernatant was collected after centrifugation for 15 minutes at 400 g. Binding reactions were performed with 5 or 10 μg of nuclear protein in 10 mM Tris, 1 mM DTT, 1 mM EDTA, 5% glycerol, 0.1% Triton X-100, 1 mg poly(dIdC), 5 μg bovine serum albumin (BSA) and approximately 10,000 cpm of −32P-labeled oligonucleotide. The binding reactions for AP-1 activity also contained 5 mM MgCl2. Control reaction mixtures contained a 100-fold excess of unlabeled oligonucleotide and were incubated with nuclear extracts of IL-1β-treated cells. DNA complexes were separated on a 4% nondenaturing polyacrylamide gel in Tris-HCl (6.7 mM), EDTA (1 mM) and ammonium acetate (3.3 mM). The oligonucleotides contained the NF-B binding site (sequence: 5′-AGTTGAGGGGACTTTCCCAGGC-3′ (SEQ ID NO: 15)) and were labeled by standard procedures.
# EMSAs were performed as described previously (47). Cells were lysed for 10 minutes on ice in 10 mM HEPES (pH 7.6), 15 mM KCl, 2 mM MgCl2, 0.1 mM EDTA, 1 mM DTT, 0.5 mM PMSF, 10 μg/mL leupeptin, and 0.2% Nonident P-40. Dishes were gently scraped, and nuclei were collected by centrifugation at 800 g for 30 seconds and then suspended in a solution of 50 mM HEPES, 400 mM KCl, 0.1 mM EDTA, 10% glycerol, 1 mM DTT, 0.5 mM PMSF, and 10 μg/mL leupeptin. The mixture was incubated on ice for 30 minutes, and the supernatant was collected after centrifugation for 15 minutes at 400 g. […]
# [2] = test system: NF-κB; experiment: NF-κB luciferase reporter assay in neonatal rat cardiomyocytes; assay type: cell-based; conditions: n=3
# Description: Neonatal rat cardiomyocytes were transfected using Lipofectamine Plus (Invitrogen) with a luciferase reporter plasmid for NF-κB and with β-galactosidase, as described previously (47). After 48 hours of transfection, cells were then stimulated for an additional 24 hours, lysed and treated with Dual-Light assay system (Applied Biosystems, Foster City, Calif.), and analyzed using a luminometer (PerkinElmer Waltham, Calif.).
# [3] = test system: IL-33; experiment: IL-33 gene expression by quantitative PCR in cardiomyocytes and cardiac fibroblasts; assay type: cell-based, rat; conditions: PMA 0.2 μM, angiotensin-II 0.1 μM, TNF-α 10 ng/ml, IL-1β 10 ng/ml
# Description: mRNA expression was analyzed by quantitative PCR using the QuantiTect SYBR Green reverse transcription-PCR kit (QIAGEN, Valencia, Calif.) and the Light Cycler System (Roche Applied Science, Indianapolis, Ind.) as previously described (5). Total RNA was extracted from cells with TRI reagent, and 0.2 μg of RNA was analyzed. Sequences of PCR primers were as follows (5′ to 3′): […] (SEQ ID NO: 1) and […] (SEQ ID NO: 2) (IL-33); […] (SEQ ID NO: 3) and […] (SEQ ID NO: 4) (ANP); […] (SEQ ID NO: 5) and […] (SEQ ID NO: 6) (BNP); […] (SEQ ID NO: 7) and […] (SEQ ID NO: 8) (procollagen I); […] (SEQ ID NO: 9) and […] (SEQ ID NO: 10) (collagen III).
# mRNA expression was analyzed by quantitative PCR using the QuantiTect SYBR Green reverse transcription-PCR kit (QIAGEN) and the Light Cycler System (Roche Applied Science) as previously described (45). Total RNA was extracted from cells with TRI reagent, and 0.2 μg of RNA was analyzed. Sequences of PCR primers were as follows (5′ to 3′): […] (SEQ ID NO: 1) and […] (SEQ ID NO: 2) (rat IL-33); […] (SEQ ID NO: 3) and […] (SEQ ID NO: 4) (rat ANP); […] (SEQ ID NO: 5) and […] (SEQ ID NO: 6) (rat BNP).
# [4] = test system: IκBα; experiment: IκBα phosphorylation by Western analysis in cardiac fibroblasts; assay type: cell-based, rat
# Description: (§2) Western analyses were performed as described previously (45). Membranes were incubated with primary antibodies overnight (anti-p44/42MAPK diluted 1:500; phospho-p44/42MAPK (Thr202/Tyr204) 1:1000; phospho-JNK (Thr183/Tyr185) 1:500; p38MAPK 1:500; phospho-p38MAPK (Thr180/Tyr182) 1:500; phospho-Akt (Ser473) 1:1000 and phospho-IκBα 1:1000, all from Cell Signaling, anti-mouse ST2L, from R&D 1:1000 and anti-IL-33 as described above, 1:500) at 4° C., detected with horseradish peroxidase-conjugated antibodies and enhanced chemiluminescence.
# [5] = test system: cardiomyocytes; experiment: Oxidative stress assay (DCFDA, ROS generation); assay type: cell-based, rat; conditions: DCFDA
# Description: An assay to detect oxidative stress was performed as reported previously (48). Cardiomyocytes were incubated with 2,7-dichlorodihydrofluorecein diacetate (DCFDA) for 45 min, washed in phosphate-buffered saline, and fluorescence intensity was measured using a fluorometer (PerkinElmer Life Science) at 595 nm.
# [6] = test system: IκBα; experiment: IκBα phosphorylation by Western analysis in cardiomyocytes; assay type: cell-based, rat; conditions: cardiomyocytes
# Description: as §2
# [7] = test system: NF-κB; experiment: NF-κB nuclear binding activity by EMSA in cardiomyocytes; assay type: cell-based, rat; conditions: cardiomyocytes; angiotensin-II 1 μM, phenylephrine 50 μM, IL-33 10 ng/ml
# Description: as §1
# EMSAs were performed as described previously (47). Cells were lysed for 10 minutes on ice in 10 mM HEPES (pH 7.6), 15 mM KCl, 2 mM MgCl2, 0.1 mM EDTA, 1 mM DTT, 0.5 mM PMSF, 10 μg/mL leupeptin, and 0.2% Nonident P-40. Dishes were gently scraped, and nuclei were collected by centrifugation at 800 g for 30 seconds and then suspended in a solution of 50 mM HEPES, 400 mM KCl, 0.1 mM EDTA, 10% glycerol, 1 mM DTT, 0.5 mM PMSF, and 10 μg/mL leupeptin. The mixture was incubated on ice for 30 minutes, and the supernatant was collected after centrifugation for 15 minutes at 400 g. Binding reactions were performed with 5 or 10 μg of nuclear protein in 10 mM Tris, 1 mM DTT, 1 mM EDTA, 5% glycerol, 0.1% Triton X-100, 1 mg poly(dIdC), […] BSA, and 10,000 cpm of [^32P]-labeled oligonucleotide. The specific NF-κB consensus oligonucleotides were 5′-[…]-3′ (SEQ ID NO: 15) and 5′-[…]-3′ (SEQ ID NO: 18) (Promega). Positive and negative control mixtures as well as specific competition mixtures were made as recommended by the manufacturer's instructions, using binding buffer with positive samples, labeled NF-κB oligonucleotides and 10-fold excess of cold NF-κB consensus oligonucleotides for specific competition. DNA complexes were separated on a 6% nondenaturing polyacrylamide gel in Tris-HCl (6.7 mM), EDTA (1 mM), and ammonium acetate (3.3 mM).
# [8] = test system: rat neonatal cardiac fibroblasts; experiment: sST2 and IL-33 secretion and free IL-33 in cardiac fibroblast conditioned media (Western, immunoprecipitation); assay type: cell-based
# Description: Immunoprecipitation was performed as described previously (45) with some modifications. Briefly, after wash with PBS, protein G-agarose beads were presaturated with far excessive amount of sST2-Fc protein (R&D) at 4° C. overnight, washed 3 times with PBS. 1 ml of conditioned media in the presence and absence of separated preincubation with 20 μg of the sST2-Fc protein was then incubated with presaturated beads for 2 hours at room temperature.
# as §2
# [9] = test system: rat neonatal cardiomyocytes; experiment: [3H]-leucine incorporation assay (hypertrophy); assay type: cell-based; conditions: for hypertrophic response under angiotensin-II or phenylephrine: agent added without IL-33; for antihypertrophic effect of IL-33: under angiotensin-II or phenylephrine plus IL-33, agent added
# Description: Leucine incorporation in rat neonatal cardiomyocytes was detected as previously described (7). Cells were pre-incubated with 1.0 μCi/mL [^3H]leucine for 24 hours. The medium was aspirated, and the cells were washed twice with ice-cold PBS and once with 10% trichloroacetic acid (TCA; Sigma) and fixed for 45 minutes at 4° C. with 10% TCA. After washing twice with cold 95% ethanol, radioactivity incorporated into the TCA-precipitable material was determined by liquid scintillation counting after solubilization in 0.15N NaOH.
# Leucine incorporation in rat neonatal cardiomyocytes was detected as previously described (46). Cells were treated with 1.0 μCi/ml [^3H]-leucine for 24 hours, washed, fixed with 10% trichloroacetate (Sigma) for 45 minutes at 4° C., and then radioactivity was determined by liquid scintillation counting. An anti-mouse ST2 antibody (R&D) was used as a functional neutralizing antibody (12). A normal rat IgG2a (Sigma) and mouse IL-1Rrp2 (R&D) were used as controls for anti-mouse ST2 antibody (R&D) and mouse soluble ST2 (R&D), respectively.
# [10] = increasing doses of PMA, 24 hrs
molecule,measurement,setting,value
"angiotensin-II (DRVYIHPF; Angiotensin-2; UniProt P01019 25-32, looked up) [hypertrophic stimulus, angiotensin receptor agonist, reference compound]",NF-κB activation by agent alone,[1],independently activated NF-κB in both cell types
same,increase of NF-κB promoter activity,[2]; angiotensin-II alone,66+/−26%
same,induction of IL-33 gene expression,[3],induced the expression of IL-33 in both cell types
same,IκBα phosphorylation by agent alone,[4],induced IκBα phosphorylation in both cell types
same,ROS generation by agonist alone,[5],significantly induced ROS generation
same,IκBα phosphorylation by agent alone,[6],induced IκBα phosphorylation in both cell types
same,NF-κB activation by agent alone,[7],independently activated NF-κB in both cell types
"CCCCCCCCCCCCCC(=O)O[C@@H]1[C@@H](C)[C@@]2(O)[C@@H](C=C(CO)C[C@]3(O)C(=O)C(C)=C[C@@H]23)[C@@H]2C(C)(C)[C@]12OC(C)=O [PMA, phorbol 12-myristate 13-acetate]",induction of IL-33 gene expression,[3],induced the expression of IL-33 in both cell types; also recorded: powerful inducer
same,free (unbound) IL-33,[8]; [10],unbound IL-33 diminished; also recorded: dose-dependent decrease in free IL-33 level; also recorded: dose-dependently decreased free IL-33
same,secretion of sST2 and total IL-33,[8]; [10],both sST2 and total IL-33 were induced; also recorded: dose-dependent robust induction in both sST2 and IL-33 protein expression; also recorded: dose-dependently increased secretion of both IL-33 (top) and sST2
"sST2-Fc: sST2-Fc protein (R&D), recombinant ST2-Fc chimera protein",free IL-33 in conditioned media after preincubation,[8]; 20 μg of sST2-Fc protein,removed free IL-33
TNF-α,induction of IL-33 gene expression,[3],neither TNF-α (10 ng/ml) nor IL-1β (10 ng/ml) induced IL-33 gene expression
"IL-1β: cytokine stimulus, 10 ng/ml",induction of IL-33 gene expression,[3],neither TNF-α (10 ng/ml) nor IL-1β (10 ng/ml) induced IL-33 gene expression
sST2: soluble form of ST2; mouse soluble ST2 (R&D); acts as decoy receptor for IL-33,hypertrophic response under angiotensin-II or phenylephrine,[9],further augment the hypertrophic response; also recorded: trend toward increased amino acid uptake
same,hypertrophic response under angiotensin-II or phenylephrine,[9]; listed as soluble ST2,further enhanced hypertrophy
same,leucine uptake at baseline,"[9]; agent alone, vs baseline or control protein",not affected
same,antihypertrophic effect of IL-33,[9],reversed the antihypertrophic effect of IL-33 in a dose-dependent manner
same,antihypertrophic effect of IL-33,[9]; listed as Soluble ST2,dose-dependently reversed the antihypertrophic effect of IL-33
same,antihypertrophic effect of IL-33,[9]; listed as soluble ST2,abolishes it; also recorded: the effects of IL-33 are abolished
same,increase of NF-κB promoter activity,[2]; angiotensin-II with IL-33 and sST2 co-treatment,42+/−5%
"CNC[C@H](O)c1cccc(O)c1 [phenylephrine, reference compound]",NF-κB activation by agent alone,[1],independently activated NF-κB in both cell types
same,ROS generation by agonist alone,[5],significantly induced ROS generation
same,NF-κB activation by agent alone,[7],independently activated NF-κB in both cell types
